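Where inhibition never reached the appropriate level, the endpoint shown equals the highest concentration tested. Otherwise, values were interpolated linearly from a five-concentration, 48-hour dose response in 96-well plates. At the GI50, growth is halved.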 The source made the active and inactive calls. No stated cut-off is given here; in the data, active = GI50 up to about 1.1 µM and inactive = higher.
Columns and labels:
Test in all cases: growth of human tumour cells (NCI), 48 h
786-0 = system: 786-0
A498 = system: A498
A549 = system: A549
ACHN = system: ACHN
BT-549 = system: BT-549
CAKI-1 = system: CAKI-1
CCRF-CEM = system: CCRF-CEM
COLO 205 = system: COLO 205
DU-145 = system: DU-145
EKVX = system: EKVX
HCC 2998 = system: HCC 2998
HCT-116 = system: HCT-116
HCT-15 = system: HCT-15
HL-60 = system: HL-60
HOP-62 = system: HOP-62
HOP-92 = system: HOP-92
HT-29 = system: HT-29
Hs-578T = system: Hs-578T
IGROV-1 = system: IGROV-1
K562 = system: K562
KM12 = system: KM12
LOX IMVI = system: LOX IMVI
M14 = system: M14
MCF7 = system: MCF7
MDA-MB-231 = system: MDA-MB-231
MDA-MB-435 = system: MDA-MB-435
MDA-N = system: MDA-N
MOLT-4 = system: MOLT-4
Malme-3M = system: Malme-3M
NCI-H226 = system: NCI-H226
NCI-H23 = system: NCI-H23
NCI-H460 = system: NCI-H460
NCI-H522 = system: NCI-H522
NCI/ADR-RES = system: NCI/ADR-RES
OVCAR-3 = system: OVCAR-3
OVCAR-4 = system: OVCAR-4
OVCAR-5 = system: OVCAR-5
OVCAR-8 = system: OVCAR-8
PC-3 = system: PC-3
RPMI-8226 = system: RPMI-8226
RXF 393 = system: RXF 393
SF-268 = system: SF-268
SF-295 = system: SF-295
SF-539 = system: SF-539
SK-MEL-28 = system: SK-MEL-28
SK-MEL-2 = system: SK-MEL-2
SK-MEL-5 = system: SK-MEL-5
SK-OV-3 = system: SK-OV-3
SN12C = system: SN12C
SNB-19 = system: SNB-19
SNB-75 = system: SNB-75
SR = system: SR
SW-620 = system: SW-620
T47D = system: T47D
TK-10 = system: TK-10
U-251 = system: U-251
UACC-257 = system: UACC-257
UACC-62 = system: UACC-62
UO-31 = system: UO-31
DLD-1 = system: DLD-1
DMS-114 = system: DMS-114
KM-20L2 = system: KM-20L2
LXFL 529 = system: LXFL 529
M19-MEL = system: M19-MEL
SNB-78 = system: SNB-78

Structure (SMILES): CC1(C)OCC(C2OC3OC(C)(C)OC3C2N)O1 (stereo not drawn)
- GI50 (786-0): > 100 µM (inactive)
- GI50 (A498): > 100 µM (inactive)
- GI50 (A549): > 100 µM (inactive)
- GI50 (ACHN): > 100 µM (inactive)
- GI50 (BT-549): > 100 µM (inactive)
- GI50 (CAKI-1): > 100 µM (inactive)
- GI50 (CCRF-CEM): > 100 µM (inactive)
- GI50 (COLO 205): > 100 µM (inactive)
- GI50 (DU-145): > 100 µM (inactive)
- GI50 (EKVX): > 100 µM (inactive)
- GI50 (HCC 2998): > 100 µM (inactive)
- GI50 (HCT-116): > 100 µM (inactive)
- GI50 (HCT-15): > 100 µM
- GI50 (HL-60): > 100 µM (inactive)
- GI50 (HOP-62): > 100 µM (inactive)
- GI50 (HOP-92): > 100 µM (inactive)
- GI50 (HT-29): > 100 µM (inactive)
- GI50 (Hs-578T): > 100 µM (inactive)
- GI50 (IGROV-1): > 100 µM (inactive)
- GI50 (K562): > 100 µM (inactive)
- GI50 (KM12): > 100 µM (inactive)
- GI50 (LOX IMVI): > 100 µM (inactive)
- GI50 (M14): > 100 µM (inactive)
- GI50 (MCF7): > 100 µM (inactive)
- GI50 (MDA-MB-231): > 100 µM (inactive)
- GI50 (MDA-MB-435): > 100 µM (inactive)
- GI50 (MDA-N): > 100 µM (inactive)
- GI50 (MOLT-4): > 100 µM (inactive)
- GI50 (Malme-3M): > 100 µM (inactive)
- GI50 (NCI-H226): > 100 µM (inactive)
- GI50 (NCI-H23): > 100 µM (inactive)
- GI50 (NCI-H460): > 100 µM (inactive)
- GI50 (NCI-H522): > 100 µM (inactive)
- GI50 (NCI/ADR-RES): > 100 µM (inactive)
- GI50 (OVCAR-3): > 100 µM (inactive)
- GI50 (OVCAR-4): > 100 µM (inactive)
- GI50 (OVCAR-5): > 100 µM (inactive)
- GI50 (OVCAR-8): > 100 µM (inactive)
- GI50 (PC-3): > 100 µM (inactive)
- GI50 (RPMI-8226): > 100 µM (inactive)
- GI50 (RXF 393): > 100 µM (inactive)
- GI50 (SF-268): > 100 µM (inactive)
- GI50 (SF-295): > 100 µM (inactive)
- GI50 (SF-539): > 100 µM (inactive)
- GI50 (SK-MEL-28): > 100 µM (inactive)
- GI50 (SK-MEL-2): > 100 µM (inactive)
- GI50 (SK-MEL-5): > 100 µM (inactive)
- GI50 (SK-OV-3): > 100 µM (inactive)
- GI50 (SN12C): > 100 µM (inactive)
- GI50 (SNB-19): > 100 µM (inactive)
- GI50 (SNB-75): > 100 µM (inactive)
- GI50 (SR): > 100 µM (inactive)
- GI50 (SW-620): > 100 µM (inactive)
- GI50 (T47D): > 100 µM (inactive)
- GI50 (TK-10): > 100 µM (inactive)
- GI50 (U-251): > 100 µM (inactive)
- GI50 (UACC-257): > 100 µM (inactive)
- GI50 (UACC-62): > 100 µM (inactive)
- GI50 (UO-31): > 100 µM (inactive)

Structure (SMILES): C/C(CC(=O)Nc1ccc(C)c(C)c1)=N\NC(N)=O
- GI50 (786-0): > 100 µM (inactive)
- GI50 (A498): > 100 µM (inactive)
- GI50 (A549): > 100 µM (inactive)
- GI50 (ACHN): > 100 µM (inactive)
- GI50 (CCRF-CEM): > 100 µM (inactive)
- GI50 (COLO 205): > 100 µM (inactive)
- GI50 (DLD-1): > 100 µM (inactive)
- GI50 (DMS-114): > 100 µM (inactive)
- GI50 (EKVX): > 100 µM (inactive)
- GI50 (HCC 2998): > 100 µM (inactive)
- GI50 (HCT-116): > 100 µM (inactive)
- GI50 (HL-60): > 100 µM (inactive)
- GI50 (HOP-62): > 100 µM (inactive)
- GI50 (HOP-92): > 100 µM (inactive)
- GI50 (HT-29): > 100 µM (inactive)
- GI50 (IGROV-1): > 100 µM (inactive)
- GI50 (K562): > 100 µM (inactive)
- GI50 (KM-20L2): > 100 µM (inactive)
- GI50 (KM12): > 100 µM (inactive)
- GI50 (LOX IMVI): > 100 µM (inactive)
- GI50 (LXFL 529): > 100 µM (inactive)
- GI50 (M14): > 100 µM (inactive)
- GI50 (M19-MEL): > 100 µM (inactive)
- GI50 (MOLT-4): > 100 µM (inactive)
- GI50 (Malme-3M): > 100 µM (inactive)
- GI50 (NCI-H226): 57.9 µM (inactive)
- GI50 (NCI-H23): > 100 µM (inactive)
- GI50 (NCI-H460): > 100 µM (inactive)
- GI50 (NCI-H522): 82 µM (inactive)
- GI50 (OVCAR-3): > 100 µM (inactive)
- GI50 (OVCAR-5): > 100 µM (inactive)
- GI50 (OVCAR-8): > 100 µM (inactive)
- GI50 (RPMI-8226): > 100 µM (inactive)
- GI50 (RXF 393): > 100 µM (inactive)
- GI50 (SF-268): > 100 µM (inactive)
- GI50 (SF-295): > 100 µM (inactive)
- GI50 (SF-539): > 100 µM (inactive)
- GI50 (SK-MEL-28): > 100 µM (inactive)
- GI50 (SK-MEL-2): > 100 µM (inactive)
- GI50 (SK-MEL-5): > 100 µM (inactive)
- GI50 (SK-OV-3): > 100 µM (inactive)
- GI50 (SNB-75): > 100 µM (inactive)
- GI50 (SNB-78): > 100 µM (inactive)
- GI50 (SW-620): > 100 µM (inactive)
- GI50 (TK-10): > 100 µM (inactive)
- GI50 (U-251): > 100 µM (inactive)
- GI50 (UACC-257): > 100 µM (inactive)
- GI50 (UACC-62): > 100 µM (inactive)
- GI50 (UO-31): > 100 µM (inactive)
